These results are taken from patent publication US20230310428A1, “EGFR INHIBITOR AND PREPARATION METHOD AND USE THEREOF” (HONGYUN BIOTECH CO., LTD., priority 2020, published 2023).

Common to all, as to assay: Growth inhibitory activity of compounds on BaF3 cell lines stably transfected with kinase (MTS, 48 h)
Assay type in all cases: cell-based

The target in experiment [1] is T1, various mutants of kinase EGFR (BaF3 cell lines stably transfected with kinase) (Homo sapiens, UniProt P00533, T790M, form not given).
T1 construct: other: BaF3 cells stably transfected with EGFR Δ19Del/T790M; MTS, 48 h; other: BaF3 cell line stably transfected with EGFR Δ19Del/T790M; MTS, 48
The conditions noted are these: BaF3 cell line stably transfected with EGFR Δ19Del/T790M, read-out: Δ19Del/ T790M growth inhibitory activity IC50. The procedure, abridged: (§1)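 OD at 490 nm after 1-4 h MTS/PES incubation gave growth inhibition relative to 0.1% DMSO negative and cell-free medium blank. Compounds: 8-point 1/3 dilution from 10 µM, 48 h, 37 °C. IC50 from inhibition curves; duplicates.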

The target of experiment [2] is T2, various mutants of kinase EGFR (BaF3 cell lines stably transfected with kinase) (Homo sapiens, UniProt P00533, L858R).
T2 construct: expressed in transfected cells; host or cells: BaF3
Particulars: BaF3 cell line stably transfected with EGFR L858R, read-out: L858R growth inhibitory activity IC50. The procedure, abridged:
as §1

Experiment [3] deals with T3, various mutants of kinase EGFR (BaF3 cell lines stably transfected with kinase) (Homo sapiens, UniProt P00533, C797S/L858R/T790M).
T3 construct: expressed in transfected cells; host or cells: BaF3
Particulars: BaF3 cell line stably transfected with EGFR L858R/T790M/C797S, read-out: L858R/T790M/ C797S growth inhibitory activity IC50. Put shortly: as §1

The target of experiment [4] is T4, various mutants of kinase EGFR (BaF3 cell lines stably transfected with kinase) (Homo sapiens, UniProt P00533, L858R/T790M).
T4 construct: expressed in transfected cells; host or cells: BaF3
Particulars: BaF3 cell line stably transfected with EGFR L858R/T790M, read-out: L858R/ T790M growth inhibitory activity IC50. The procedure, abridged:
as §1

In experiment [5] the target is T5, various mutants of kinase EGFR (BaF3 cell lines stably transfected with kinase) (Homo sapiens, UniProt P00533).
T5 construct: other: BaF3 cells stably transfected with EGFR Δ19Del; MTS, 48 h; other: BaF3 cell line stably transfected with EGFR Δ19Del
Particulars: BaF3 cell line stably transfected with EGFR Δ19Del, read-out: Δ19Del growth inhibitory activity IC50. The procedure, abridged: as §1

For experiment [6], the target named is T6, various mutants of kinase EGFR (BaF3 cell lines stably transfected with kinase) (Homo sapiens, UniProt P00533, T790M/C797S, form not given).
T6 construct: other: BaF3 cells stably transfected with EGFR Δ19Del/T790M/C797S; MTS, 48; other: BaF3 cell line stably transfected with EGFR Δ19Del/T790M/C7
The conditions noted are these: BaF3 cell line stably transfected with EGFR Δ19Del/T790M/C797S, read-out: Δ19Del/T790M/ C797S growth inhibitory activity IC50. Put shortly: as §1

Bounds are passed on as bounds.

T5 sequence (P00533 with tags, fused parts or gaps DEL746-750): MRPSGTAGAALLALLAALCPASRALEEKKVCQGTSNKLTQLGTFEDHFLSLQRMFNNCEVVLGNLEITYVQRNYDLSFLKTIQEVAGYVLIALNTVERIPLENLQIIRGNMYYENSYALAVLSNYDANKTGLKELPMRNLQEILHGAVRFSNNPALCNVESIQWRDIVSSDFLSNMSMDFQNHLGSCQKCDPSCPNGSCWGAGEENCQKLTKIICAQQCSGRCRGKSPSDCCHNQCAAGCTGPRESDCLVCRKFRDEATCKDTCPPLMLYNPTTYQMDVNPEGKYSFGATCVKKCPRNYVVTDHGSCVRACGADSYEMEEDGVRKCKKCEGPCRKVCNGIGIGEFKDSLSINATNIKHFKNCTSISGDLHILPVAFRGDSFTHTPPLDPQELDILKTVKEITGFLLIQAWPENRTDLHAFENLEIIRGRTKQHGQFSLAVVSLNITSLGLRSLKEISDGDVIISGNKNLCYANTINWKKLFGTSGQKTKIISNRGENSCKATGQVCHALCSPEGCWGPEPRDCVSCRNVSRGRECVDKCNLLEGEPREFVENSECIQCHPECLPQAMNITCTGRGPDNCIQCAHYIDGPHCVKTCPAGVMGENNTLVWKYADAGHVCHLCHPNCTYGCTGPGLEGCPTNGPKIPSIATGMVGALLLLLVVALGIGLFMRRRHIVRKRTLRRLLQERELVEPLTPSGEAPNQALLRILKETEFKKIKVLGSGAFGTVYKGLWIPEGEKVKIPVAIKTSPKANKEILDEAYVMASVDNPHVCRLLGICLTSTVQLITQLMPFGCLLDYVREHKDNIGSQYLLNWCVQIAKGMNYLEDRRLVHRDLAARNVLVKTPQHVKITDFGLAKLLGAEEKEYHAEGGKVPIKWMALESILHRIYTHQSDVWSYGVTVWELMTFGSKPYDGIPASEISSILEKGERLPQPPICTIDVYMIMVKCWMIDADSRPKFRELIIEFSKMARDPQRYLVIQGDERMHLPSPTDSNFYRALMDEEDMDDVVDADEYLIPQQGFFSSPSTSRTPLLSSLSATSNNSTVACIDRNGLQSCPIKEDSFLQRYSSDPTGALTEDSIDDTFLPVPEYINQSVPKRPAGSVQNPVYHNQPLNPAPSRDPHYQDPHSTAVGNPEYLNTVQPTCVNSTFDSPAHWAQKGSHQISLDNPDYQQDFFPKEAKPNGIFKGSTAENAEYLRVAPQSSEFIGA
T4 sequence (P00533 25-1210 T790M/L858R): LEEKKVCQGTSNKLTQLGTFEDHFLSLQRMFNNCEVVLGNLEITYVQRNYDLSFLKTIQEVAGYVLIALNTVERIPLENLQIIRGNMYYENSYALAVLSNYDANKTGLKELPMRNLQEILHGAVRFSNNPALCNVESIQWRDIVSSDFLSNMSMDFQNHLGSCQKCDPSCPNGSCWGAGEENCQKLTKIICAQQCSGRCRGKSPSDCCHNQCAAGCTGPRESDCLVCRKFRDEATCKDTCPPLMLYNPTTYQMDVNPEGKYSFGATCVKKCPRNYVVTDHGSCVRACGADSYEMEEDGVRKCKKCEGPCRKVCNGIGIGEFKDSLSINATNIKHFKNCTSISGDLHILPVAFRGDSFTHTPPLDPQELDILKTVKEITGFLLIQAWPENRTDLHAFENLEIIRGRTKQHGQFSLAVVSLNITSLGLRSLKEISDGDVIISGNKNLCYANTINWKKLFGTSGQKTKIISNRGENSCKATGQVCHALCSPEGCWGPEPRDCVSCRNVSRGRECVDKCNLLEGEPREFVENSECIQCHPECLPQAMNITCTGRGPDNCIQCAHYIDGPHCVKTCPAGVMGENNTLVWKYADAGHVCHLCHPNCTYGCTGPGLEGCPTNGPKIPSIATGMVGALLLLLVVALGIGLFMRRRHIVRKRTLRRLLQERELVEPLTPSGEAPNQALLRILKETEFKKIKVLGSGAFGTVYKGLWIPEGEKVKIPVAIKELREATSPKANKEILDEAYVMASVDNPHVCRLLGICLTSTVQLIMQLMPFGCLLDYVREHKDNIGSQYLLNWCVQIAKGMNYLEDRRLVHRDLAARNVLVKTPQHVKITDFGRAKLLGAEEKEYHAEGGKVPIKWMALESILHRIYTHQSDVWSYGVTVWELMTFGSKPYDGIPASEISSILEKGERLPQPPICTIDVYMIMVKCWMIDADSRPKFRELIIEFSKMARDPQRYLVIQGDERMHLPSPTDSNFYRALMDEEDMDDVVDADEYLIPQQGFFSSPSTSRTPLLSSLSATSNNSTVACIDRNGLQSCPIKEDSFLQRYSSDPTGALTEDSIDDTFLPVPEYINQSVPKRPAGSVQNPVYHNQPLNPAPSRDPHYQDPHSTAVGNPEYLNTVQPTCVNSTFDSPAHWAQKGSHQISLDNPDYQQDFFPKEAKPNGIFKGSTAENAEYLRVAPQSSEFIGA
T6 sequence (P00533 with tags, fused parts or gaps DEL746-750/T790M/C797S, form open): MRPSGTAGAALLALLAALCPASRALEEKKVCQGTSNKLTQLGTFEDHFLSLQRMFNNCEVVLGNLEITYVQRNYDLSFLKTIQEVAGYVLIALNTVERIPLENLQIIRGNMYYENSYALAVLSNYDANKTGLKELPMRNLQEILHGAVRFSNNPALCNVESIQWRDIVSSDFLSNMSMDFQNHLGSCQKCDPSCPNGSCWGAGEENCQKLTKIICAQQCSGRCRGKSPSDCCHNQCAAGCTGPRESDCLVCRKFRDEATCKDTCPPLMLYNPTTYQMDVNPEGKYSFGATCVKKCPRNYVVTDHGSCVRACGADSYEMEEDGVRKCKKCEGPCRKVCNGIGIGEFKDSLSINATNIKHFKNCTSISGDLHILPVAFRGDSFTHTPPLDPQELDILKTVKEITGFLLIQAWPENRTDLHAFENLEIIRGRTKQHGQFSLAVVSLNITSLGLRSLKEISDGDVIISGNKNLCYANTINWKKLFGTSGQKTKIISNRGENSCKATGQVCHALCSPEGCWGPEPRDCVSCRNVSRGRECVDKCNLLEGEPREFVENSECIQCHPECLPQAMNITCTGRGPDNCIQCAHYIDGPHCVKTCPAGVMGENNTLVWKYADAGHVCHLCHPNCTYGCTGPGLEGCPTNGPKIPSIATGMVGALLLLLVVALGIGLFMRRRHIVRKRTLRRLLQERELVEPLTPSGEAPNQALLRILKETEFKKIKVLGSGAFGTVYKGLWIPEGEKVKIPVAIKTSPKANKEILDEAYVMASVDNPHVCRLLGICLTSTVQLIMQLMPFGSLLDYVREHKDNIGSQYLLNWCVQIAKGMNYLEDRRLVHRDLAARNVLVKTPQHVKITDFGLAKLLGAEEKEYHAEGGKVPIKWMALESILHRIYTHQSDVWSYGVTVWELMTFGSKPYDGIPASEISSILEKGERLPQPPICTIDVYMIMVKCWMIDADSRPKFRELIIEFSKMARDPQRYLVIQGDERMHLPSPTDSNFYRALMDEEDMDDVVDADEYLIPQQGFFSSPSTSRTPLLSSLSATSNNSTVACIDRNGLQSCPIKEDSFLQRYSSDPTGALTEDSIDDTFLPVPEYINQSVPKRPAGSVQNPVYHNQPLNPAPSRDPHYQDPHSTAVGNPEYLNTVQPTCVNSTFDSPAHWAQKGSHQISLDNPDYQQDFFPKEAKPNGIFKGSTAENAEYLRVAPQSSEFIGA
T2 sequence (P00533 25-1210 L858R): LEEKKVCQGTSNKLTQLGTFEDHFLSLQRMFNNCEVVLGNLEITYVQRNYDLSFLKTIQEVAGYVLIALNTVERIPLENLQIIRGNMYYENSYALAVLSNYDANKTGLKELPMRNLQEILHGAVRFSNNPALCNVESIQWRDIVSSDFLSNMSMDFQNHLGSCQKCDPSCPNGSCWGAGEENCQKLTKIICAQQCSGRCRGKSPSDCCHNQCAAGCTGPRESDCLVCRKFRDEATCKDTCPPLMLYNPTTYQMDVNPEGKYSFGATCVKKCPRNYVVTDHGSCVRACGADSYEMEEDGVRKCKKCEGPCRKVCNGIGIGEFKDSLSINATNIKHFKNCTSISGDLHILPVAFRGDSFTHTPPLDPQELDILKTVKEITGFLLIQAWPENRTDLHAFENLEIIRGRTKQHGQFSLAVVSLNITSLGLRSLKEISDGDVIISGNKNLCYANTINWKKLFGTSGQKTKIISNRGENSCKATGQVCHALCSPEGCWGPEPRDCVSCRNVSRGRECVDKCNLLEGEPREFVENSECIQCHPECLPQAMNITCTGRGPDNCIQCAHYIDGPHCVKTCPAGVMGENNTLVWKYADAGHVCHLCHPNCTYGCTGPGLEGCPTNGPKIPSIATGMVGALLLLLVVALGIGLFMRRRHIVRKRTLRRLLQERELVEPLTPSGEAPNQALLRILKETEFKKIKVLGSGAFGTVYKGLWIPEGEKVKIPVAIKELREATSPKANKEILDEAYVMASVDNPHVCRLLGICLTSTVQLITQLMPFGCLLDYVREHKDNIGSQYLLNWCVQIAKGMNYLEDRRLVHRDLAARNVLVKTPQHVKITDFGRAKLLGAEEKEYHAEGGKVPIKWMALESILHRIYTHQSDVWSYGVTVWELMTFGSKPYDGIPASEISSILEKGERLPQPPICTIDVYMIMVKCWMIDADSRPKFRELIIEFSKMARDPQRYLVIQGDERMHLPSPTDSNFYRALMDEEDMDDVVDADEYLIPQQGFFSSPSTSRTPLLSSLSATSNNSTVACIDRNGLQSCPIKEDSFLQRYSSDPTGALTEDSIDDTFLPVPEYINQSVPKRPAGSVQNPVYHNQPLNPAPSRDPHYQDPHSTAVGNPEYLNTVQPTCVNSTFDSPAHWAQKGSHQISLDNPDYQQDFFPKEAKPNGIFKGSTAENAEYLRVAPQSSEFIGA

As to `COc1cc(N2CCC(N3CCN(C)CC3)CC2)c(C)cc1Nc1ncc(Br)c(Nc2ccc3nccnc3c2NS(=O)(=O)C(C)C)n1` [Compound I-414], the IC50 is no more than 50 nM in experiment [1]; 50 to 500 nM in experiment [2]; no more than 50 nM in experiment [3]; no more than 50 nM in experiment [4]; 50 to 500 nM in experiment [5]; no more than 50 nM in experiment [6].
For `CCc1cc(Nc2ncc(Br)c(Nc3ccc4nccnc4c3NS(=O)(=O)C(C)C)n2)c(OC)cc1N1CCC(N2CCN(C)CC2)CC1` [Compound I-415], the IC50 in experiment [1], in experiment [2], in experiment [3], in experiment [4], in experiment [5] and in experiment [6] was no more than 50 nM in each case.
Consider `COc1cc(N2CCC(N3CCN(C)CC3)CC2)ccc1Nc1nc(Nc2ccc3nccnc3c2N(C)S(C)(=O)=O)c2sccc2n1` [II-1-1], for which the IC50 in experiment [1] lay in the range of 500 to 2500 nM; in experiment [2] it was 500 to 2500 nM; in experiment [3], 500 to 2500 nM; in experiment [4], 500 to 2500 nM; in experiment [5], 500 to 2500 nM; in experiment [6], 50 to 500 nM.
Consider `COc1cc(N2CCC(N3CCN(C)CC3)CC2)c(C)cc1Nc1nc(Nc2ccc3nccnc3c2N(C)S(C)(=O)=O)c2sccc2n1` [II-1-2], for which the IC50 in experiment [1] was 50 to 500 nM; in experiment [2] it was 50 to 500 nM; in experiment [3] it was 50 to 500 nM; in experiment [4], 50 to 500 nM; in experiment [5] it was 50 to 500 nM; in experiment [6], no more than 50 nM.
Regarding `CCc1cc(Nc2nc(Nc3ccc4nccnc4c3N(C)S(C)(=O)=O)c3sccc3n2)c(OC)cc1N1CCC(N2CCN(C)CC2)CC1` [II-1-3], the IC50 in experiment [1] is 50 to 500 nM; in experiment [2], 50 to 500 nM; in experiment [3], no more than 50 nM; in experiment [4], 50 to 500 nM; in experiment [5], 50 to 500 nM; in experiment [6], no more than 50 nM.
`COc1nc(N2CCC(N3CCN(C)CC3)CC2)ccc1Nc1nc(Nc2ccc3nccnc3c2N(C)S(C)(=O)=O)c2sccc2n1` [II-1-4]: the IC50 in experiment [1], in experiment [2], in experiment [3], in experiment [4], in experiment [5] and in experiment [6] was 500 to 2500 nM in each case.
Take `CCc1cc(Nc2nc(Nc3ccc4nccnc4c3N(C)S(C)(=O)=O)c3sccc3n2)c(OC)nc1N1CCC(N2CCN(C)CC2)CC1` [II-1-6]: the IC50 in experiment [1] was in the range of 500 to 2500 nM; in experiment [2], 500 to 2500 nM; in experiment [3], 50 to 500 nM; in experiment [4] it was 50 to 500 nM; in experiment [5], 500 to 2500 nM; in experiment [6], 50 to 500 nM.
In the case of `CCc1cc(Nc2nc(Nc3ccc4nccnc4c3N(C)S(C)(=O)=O)c3sccc3n2)c(OC(F)(F)F)cc1N1CCC(N2CCN(C)CC2)CC1` [II-1-8], the IC50 lay within 50 to 500 nM in experiment [1]; 500 to 2500 nM in experiment [2]; 50 to 500 nM in experiment [3]; 50 to 500 nM in experiment [4]; 500 to 2500 nM in experiment [5]; 50 to 500 nM in experiment [6].
Turning to `C=Cc1cc(Nc2nc(Nc3ccc4nccnc4c3N(C)S(C)(=O)=O)c3sccc3n2)c(OC(F)(F)F)cc1N1CCC(N2CCN(C)CC2)CC1` [II-1-9], the IC50 in experiment [1] was 50 to 500 nM; in experiment [2] it was 500 to 2500 nM; in experiment [3], 50 to 500 nM; in experiment [4], 50 to 500 nM; in experiment [5] it was 500 to 2500 nM; in experiment [6], no more than 50 nM.
Turning to `COc1cc(N2CCC(N3CCN(C)CC3)CC2)c(Cc2ccccc2)cc1Nc1nc(Nc2ccc3nccnc3c2N(C)S(C)(=O)=O)c2sccc2n1` [II-1-11], the IC50 in experiment [1] lay within 50 to 500 nM; in experiment [2] it was 500 to 2500 nM; in experiment [3], 500 to 2500 nM; in experiment [4], 500 to 2500 nM; in experiment [5] it was 500 to 2500 nM; in experiment [6] it was 500 to 2500 nM.
Turning to `COc1cc(N2CCN(C)CC2)c(C)cc1Nc1nc(Nc2ccc3nccnc3c2N(C)S(C)(=O)=O)c2sccc2n1` [II-1-12], the IC50 in experiment [1] was in the range of 500 to 2500 nM; in experiment [2] it was 500 to 2500 nM; in experiment [3] it was 50 to 500 nM; in experiment [4], 50 to 500 nM; in experiment [5] it was 500 to 2500 nM; in experiment [6] it was 50 to 500 nM.
For the compound `COc1cc(N2CCC(N(C)C)CC2)c(C)cc1Nc1nc(Nc2ccc3nccnc3c2N(C)S(C)(=O)=O)c2sccc2n1` [II-1-13], the IC50 in experiment [1] was 50 to 500 nM; in experiment [2] it was 500 to 2500 nM; in experiment [3], 50 to 500 nM; in experiment [4], 50 to 500 nM; in experiment [5], 500 to 2500 nM; in experiment [6], no more than 50 nM.
With `COc1cc(N2CCC(N(C)C)C2)c(C)cc1Nc1nc(Nc2ccc3nccnc3c2N(C)S(C)(=O)=O)c2sccc2n1` (stereo not drawn) [II-1-14], the IC50 lay in the range of 500 to 2500 nM in experiment [1]; 500 to 2500 nM in experiment [2]; 500 to 2500 nM in experiment [3]; 50 to 500 nM in experiment [4]; 500 to 2500 nM in experiment [5]; 50 to 500 nM in experiment [6].
In the case of `CCc1cc(Nc2nc(Nc3ccc4nccnc4c3N(C)S(C)(=O)=O)c3sccc3n2)c(OC)cc1N1CCN(C)CC1` [II-1-15], the IC50 is 500 to 2500 nM in experiment [1]; 500 to 2500 nM in experiment [2]; 50 to 500 nM in experiment [3]; 500 to 2500 nM in experiment [4]; 500 to 2500 nM in experiment [5]; 50 to 500 nM in experiment [6].
For the compound `CCc1cc(Nc2nc(Nc3ccc4nccnc4c3N(C)S(C)(=O)=O)c3sccc3n2)c(OC)cc1N1CCC(N(C)C)CC1` [II-1-16], the IC50 in experiment [1] is 50 to 500 nM; in experiment [2], 50 to 500 nM; in experiment [3] it was 50 to 500 nM; in experiment [4], 50 to 500 nM; in experiment [5], 500 to 2500 nM; in experiment [6], no more than 50 nM.
Consider `CCc1cc(Nc2nc(Nc3ccc4nccnc4c3N(C)S(C)(=O)=O)c3sccc3n2)c(OC)cc1N1CCC(N(C)C)C1` (stereo not drawn) [II-1-17], for which the IC50 in experiment [1], in experiment [2], in experiment [3], in experiment [4], in experiment [5] and in experiment [6] was 50 to 500 nM in each case.
Regarding `COc1cc(N2CCC(N3CCN(C)CC3)CC2)c(C)cc1Nc1nc(Nc2ccc3nccnc3c2N(C)S(C)(=O)=O)c2[nH]ccc2n1` [II-1-19], the IC50 fell in the range of 500 to 2500 nM in experiment [1]; 500 to 2500 nM in experiment [2]; 500 to 2500 nM in experiment [3]; 50 to 500 nM in experiment [4]; 500 to 2500 nM in experiment [5]; 500 to 2500 nM in experiment [6].
As for `CCc1cc(Nc2nc(Nc3ccc4nccnc4c3N(C)S(C)(=O)=O)c3[nH]ccc3n2)c(OC)cc1N1CCC(N2CCN(C)CC2)CC1` [II-1-20], the IC50 lay within 500 to 2500 nM in experiment [1]; 50 to 500 nM in experiment [2]; 500 to 2500 nM in experiment [3]; 50 to 500 nM in experiment [4]; 500 to 2500 nM in experiment [5]; 50 to 500 nM in experiment [6].
With `CCc1cc(Nc2nc(Nc3ccc4nccnc4c3N(C)S(C)(=O)=O)c3[nH]ccc3n2)c(OC)nc1N1CCC(N2CCN(C)CC2)CC1` [II-1-21], the IC50 in experiment [1] is 50 to 500 nM; in experiment [2], 50 to 500 nM; in experiment [3], 50 to 500 nM; in experiment [4], 500 to 2500 nM; in experiment [5], 50 to 500 nM; in experiment [6] it was 50 to 500 nM.
For `CCc1cc(Nc2nc(Nc3ccc4nccnc4c3N(C)S(C)(=O)=O)c3[nH]ccc3n2)c(OC(F)(F)F)cc1N1CCC(N2CCN(C)CC2)CC1` [II-1-22], the IC50 lay within 50 to 500 nM in experiment [1]; 500 to 2500 nM in experiment [2]; 50 to 500 nM in experiment [3]; 50 to 500 nM in experiment [4]; 50 to 500 nM in experiment [5]; 50 to 500 nM in experiment [6].
In the case of `C=Cc1cc(Nc2nc(Nc3ccc4nccnc4c3N(C)S(C)(=O)=O)c3[nH]ccc3n2)c(OC(F)(F)F)cc1N1CCC(N2CCN(C)CC2)CC1` [II-1-23], the IC50 is 50 to 500 nM in experiment [1]; 50 to 500 nM in experiment [2]; 50 to 500 nM in experiment [3]; 50 to 500 nM in experiment [4]; 50 to 500 nM in experiment [5]; no more than 50 nM in experiment [6].
Regarding `COc1cc(N2CCC(N3CCN(C)CC3)CC2)ccc1Nc1nc(Nc2ccc3nccnc3c2N(C)S(C)(=O)=O)c2occc2n1` [II-1-24], the IC50 in experiment [1], in experiment [2], in experiment [3], in experiment [4], in experiment [5] and in experiment [6] was 500 to 2500 nM in each case.
